These molecules were tested on IFNγ-Induced NO Production in RAW 264.7 cells (assay: Nitric Oxide Suppression Assay (suppression of IFNγ-induced NO production)). Settings: RAW264.7; RAW 264.7 mouse macrophage cells, 20 ng/mL interferon gamma, Griess detection; single curve fit to mean data of n=2-3.
Format: cell-based
Procedure: RAW 264.7, a mouse macrophage cell line, was obtained from American Type Culture Collection (Manassas Va.) and maintained in the log phase of growth in Dulbecco's Modified Eagle's Medium (DMEM), 10% heat inactivated fetal calf serum and 100 units/mL antibiotic-antimycotic (AA). Cells were cultured and maintained in a humidified incubator at 37° C. under 5% CO2 and 95% air. Cells were sub-cultured every 3 days by scraping and were not used beyond passage 20. All cell culture supplies were obtained from Life Technologies (Grand Island, N.Y.).
RAW 264.7 cells were plated 1 day in advance of experiment at a concentration of 80,000 cells/well onto CellBIND® 96 well plates (Corning, N.Y.) in a total volume of 100 μL. The next day, pre-treat cells with compounds (from 3 μM to 0.3 nM serially diluted in a 10 point curve) from a 10× stock by adding 10 μL per well in complete DMEM media containing 10% fetal calf serum. The plates were centrifuged for 3 minutes at 400×g at room temperature followed by 2 hour incubation at 37° C. The cells were then incubated overnight at 37° C. with 10 μL of the insult, interferon gamma (R&D Systems, Minneapolis, Minn.), from a 10× stock for a final concentration of 20 ng/mL. The plates were centrifuged for 3 minutes at 400×g at room temperature followed by 18 hour incubation at 37° C. The following day, transfer 50 μL cell culture supernatant from each well into a clear bottom 96 well plate and follow the instructions from Promega's Griess Detection Kit #G2930 (Madison, Wis.) which involves the addition of 50 μL of the provided sulfanilamide solution for a 5-10 minute incubation at room temperature. Next add 50 μL of the provided N-1-napthylethylenediamine dihydrochloride (NED) solution for a 5-10 minute incubation at room temperature and protected from light. If any air bubbles were introduced into the well, the plates need to be centrifuged for 5 minutes at 400×g at room temperature to avoid interference with absorbance readings. The plates were read for absorbance within 30 minutes with a filter between 520 nm and 550 nm.
For the ability of compounds to suppress the increase in nitric oxide release, the percent maximal intensity of nitric oxide detected in each well was normalized to that induced by the peak value for 20 ng/mL of interferon gamma alone and plotted against the compound concentration to calculate IC50 values and to control for plate-to-plate variability. Concentration-response data were analyzed using GraphPad Prism (San Diego, Calif.); the IC50 values were derived from a single curve fit to the mean data of n=2-3, in duplicates.
All compounds were dissolved in dimethyl sulfoxide at 10 mM stock solutions and tested at a concentration that the dimethyl sulfoxide levels never exceeded 1%.

| Compound | IC50 [nM] |
| --- | --- |
| CC1(C)C(=O)C(C#N)=C[C@]2(C)C3=CC(=O)[C@]4(O)[C@@H]5C[C@@](C)(C(=O)NC6CCOCC6)CC[C@]5(C)CC[C@@]4(C)[C@]3(C)CC[C@@H]12 [Example 18, (2S,4aS,6aS,6bR,8aR,12aS,14aS,14bR)-11-cyano-14a-hydroxy-2,4a,6a,6b,9,9,12a-heptamethyl-10,14-dioxo-N-(tetrahydro-2H-pyran-4-yl)-1,2,3,4,4a,5,6,6a,6b,7,8,8a,9,10,12a,14,14a,14b-octadecahydropicene-2-carboxamide] | 17.1 |
| COCCNC(=O)[C@@]1(C)CC[C@]2(C)CC[C@@]3(C)[C@]4(C)CC[C@H]5C(C)(C)C(=O)C(C#N)=C[C@]5(C)C4=CC(=O)[C@]3(O)[C@@H]2C1 [Example 16, (2S,4aS,6aS,6bR,8aR,12aS,14aS,14bR)-11-cyano-14a-hydroxy-N-(2-methoxyethyl)-2,4a,6a,6b,9,9,12a-heptamethyl-10,14-dioxo-1,2,3,4,4a,5,6,6a,6b,7,8,8a,9,10,12a,14,14a,14b-octadecahydropicene-2-carboxamide] | 8.6 |
| CC(C)CNC(=O)[C@@]1(C)CC[C@]2(C)CC[C@@]3(C)[C@]4(C)CC[C@H]5C(C)(C)C(=O)C(C#N)=C[C@]5(C)C4=CC(=O)[C@]3(O)[C@@H]2C1 [Example 32, (2S,4aS,6aS,6bR,8aR,12aS,14aS,14bR)-11-cyano-14a-hydroxy-N-isobutyl-2,4a,6a,6b,9,9,12a-heptamethyl-10,14-dioxo-1,2,3,4,4a,5,6,6a,6b,7,8,8a,9,10,12a,14,14a,14b-octadecahydropicene-2-carboxamide] | 8.8 |
| CC1(C)C(=O)C(C#N)=C[C@]2(C)C3=CC(=O)[C@]4(O)[C@@H]5C[C@@](C)(C(=O)NCCO)CC[C@]5(C)CC[C@@]4(C)[C@]3(C)CC[C@@H]12 [Example 4, (2S,4aS,6aS,6bR,8aR,12aS,14aS,14bR)-11-cyano-14a-hydroxy-N-(2-hydroxyethyl)-2,4a,6a,6b,9,9,12a-heptamethyl-10,14-dioxo-1,2,3,4,4a,5,6,6a,6b,7,8,8a,9,10,12a,14,14a,14b-octadecahydropicene-2-carboxamide] | 55.4 |
| CC1(C)C(=O)C(C#N)=C[C@]2(C)C3=CC(=O)[C@]4(O)[C@@H]5C[C@@](C)(C(=O)NCc6ccco6)CC[C@]5(C)CC[C@@]4(C)[C@]3(C)CC[C@@H]12 [Example 26, (2S,4aS,6aS,6bR,8aR,12aS,14aS,14bR)-11-cyano-N-(2-furylmethyl)-14a-hydroxy-2,4a,6a,6b,9,9,12a-heptamethyl-10,14-dioxo-1,2,3,4,4a,5,6,6a,6b,7,8,8a,9,10,12a,14,14a,14b-octadecahydropicene-2-carboxamide] | 10.2 |
| Cc1ccccc1CNC(=O)[C@@]1(C)CC[C@]2(C)CC[C@@]3(C)[C@]4(C)CC[C@H]5C(C)(C)C(=O)C(C#N)=C[C@]5(C)C4=CC(=O)[C@]3(O)[C@@H]2C1 [Example 11, (2S,4aS,6aS,6bR,8aR,12aS,14aS,14bR)-11-cyano-14a-hydroxy-2,4a,6a,6b,9,9,12a-heptamethyl-N-(2-methylbenzyl)-10,14-dioxo-1,2,3,4,4a,5,6,6a,6b,7,8,8a,9,10,12a,14,14a,14b-octadecahydropicene-2-carboxamide] | 140 |
| CC1(C)C(=O)C(C#N)=C[C@]2(C)C3=CC(=O)[C@@H]4[C@@H]5C[C@@](C)(C(=O)NCc6cnco6)CC[C@]5(C)CC[C@@]4(C)[C@]3(C)CC[C@@H]12 [Example 39, (2S,4aS,6aR,6bS,8aR,12aS,14aR,14bS)-11-cyano-2,4a,6a,6b,9,9,12a-heptamethyl-N-(1,3-oxazol-5-ylmethyl)-10,14-dioxo-1,2,3,4,4a,5,6,6a,6b,7,8,8a,9,10,12a,14,14a,14b-octadecahydropicene-2-carboxamide] | 5.7 |
| CC(C)CCNC(=O)[C@@]1(C)CC[C@]2(C)CC[C@@]3(C)[C@]4(C)CC[C@H]5C(C)(C)C(=O)C(C#N)=C[C@]5(C)C4=CC(=O)[C@]3(O)[C@@H]2C1 [Example 17, (2S,4aS,6aS,6bR,8aR,12aS,14aS,14bR)-11-cyano-14a-hydroxy-2,4a,6a,6b,9,9,12a-heptamethyl-N-(3-methylbutyl)-10,14-dioxo-1,2,3,4,4a,5,6,6a,6b,7,8,8a,9,10,12a,14,14a,14b-octadecahydropicene-2-carboxamide] | 24 |
| CC1(C)C(=O)C(C#N)=C[C@]2(C)C3=CC(=O)[C@]4(O)[C@@H]5C[C@@](C)(C(=O)NCc6cccnn6)CC[C@]5(C)CC[C@@]4(C)[C@]3(C)CC[C@@H]12 [Example 8, (2S,4aS,6aS,6bR,8aR,12aS,14aS,14bR)-11-cyano-14a-hydroxy-2,4a,6a,6b,9,9,12a-heptamethyl-10,14-dioxo-N-(pyridazin-3-ylmethyl)-1,2,3,4,4a,5,6,6a,6b,7,8,8a,9,10,12a,14,14a,14b-octadecahydropicene-2-carboxamide] | 27.9 |

— patent US20140073700A1, “[…] ACID DERIVATIVES AND METHODS OF USE THEREOF” (AbbVie Inc., priority 2012, published 2014)
